Assay results as given in patent US6605424B1, “Method of detecting inhibitors of agonist-specific desensitization” (Duke University, priority 1989, dated 2003).

Key:
βAR kinase [1] = target: T1, βAR kinase (Bos taurus, UniProt P21146); assay: Phosphorylation of rhodopsin (urea-treated rod outer segments) by βAR kinase; format: biochemical, bovine
T1 construct: βAR kinase was purified from bovine cerebral cortex; from tissue; host or cells: bovine cerebral cortex
T1 sequence (P21146 1-689): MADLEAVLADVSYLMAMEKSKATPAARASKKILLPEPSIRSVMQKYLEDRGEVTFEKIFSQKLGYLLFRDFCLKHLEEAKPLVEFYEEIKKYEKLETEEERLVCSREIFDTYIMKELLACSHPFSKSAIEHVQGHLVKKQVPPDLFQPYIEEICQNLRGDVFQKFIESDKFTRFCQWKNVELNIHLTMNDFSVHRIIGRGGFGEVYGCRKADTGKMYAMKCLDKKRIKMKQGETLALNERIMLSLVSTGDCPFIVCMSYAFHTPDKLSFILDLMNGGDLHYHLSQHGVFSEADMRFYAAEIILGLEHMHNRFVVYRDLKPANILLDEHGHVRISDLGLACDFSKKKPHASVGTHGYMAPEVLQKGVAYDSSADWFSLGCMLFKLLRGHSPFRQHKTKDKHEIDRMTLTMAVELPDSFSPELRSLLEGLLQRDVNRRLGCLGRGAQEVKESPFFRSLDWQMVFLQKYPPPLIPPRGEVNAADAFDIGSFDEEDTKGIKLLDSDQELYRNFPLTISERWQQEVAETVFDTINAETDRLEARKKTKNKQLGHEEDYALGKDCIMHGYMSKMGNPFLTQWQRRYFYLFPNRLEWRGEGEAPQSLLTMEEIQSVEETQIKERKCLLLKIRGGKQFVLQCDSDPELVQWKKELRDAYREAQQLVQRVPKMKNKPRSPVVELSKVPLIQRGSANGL

βAR kinase [2] = target: T1, βAR kinase; assay: as above; format: biochemical, bovine; remark: listed apart in the source
Procedure: βAR kinase was purified from bovine cerebral cortex by modification of procedure of Benovic et al (J. Biol. Chem. (1987) 262:9026-9032). Briefly, 250 g of bovine cerebral cortex were homogenized with a Brinkmann tissue disrupter and centrifuged (40,000×g, 30 min). The supernatant was then precipitated with 13-26% ammonium sulfate. This material was initially chromatographed on a Ultrogel AcA34 column equilibrated with 5 mM Tris-HCl, pH 7.5, 2 mM EDTA, 10 μg/ml leupeptin, 5 μg/ml pepstatin, 10 μg/ml benzamidine, 0.2 mM phenylmethylsulfonyl fluoride (buffer A). The peak activity was diluted with an equal volume of buffer A containing 0.04% Triton X-100 before being applied to a DEAE-Sephacel column. Elution was accomplished with a 0-80 mM NaCl gradient in buffer A containing 0.02% Triton X-100. The peak activity was then applied to a CM-Fractogel column and eluted with a 0-100 mM NaCl gradient in buffer A containing 0.02% Triton X-100. The purified kinase is stable at 4° C. for several months. For these studies the βAR kinase preparations were >75% pure.
Rod outer segments were prepared from bovine retinas by stepwise sucrose gradient centrifugation (Wilden et al Biochemistry (1982) 21:3014-3022). Rhodopsin kinase-free rod outer segments were prepared by treatment with 5 M urea (Shichi et al J. Biol. Chem. (1978) 253:7040-7046) and consisted of ˜95% rhodopsin, as assessed by Coomassie Blue staining of sodium dodecyl sulfate-polyacrylamide gels.
Urea-treated rod outer segments were phosphorylated with βAR kinase as follows. Urea-treated rod outer segments (˜4 μg of rhodopsin) were incubated with βAR kinase (˜0.1 μg) for 10-15 min at 30° C. in the presence of 40 mM Tris-HCl, pH 7.4, 10 mM NaCl, 5 mM MgCl2, 1.5 mM EDTA, and 65 μM ATP (˜1 cpm/fmol) (total reaction volume was 40 μl). Reactions were stopped by the addition of 40 μl of sodium dodecyl sulfate sample buffer (see below) followed by sodium dodecyl sulfate-polyacrylamide gel electrophoresis. After autoradiography, the phosphorylated rhodopsin bands were excised and counted.
Sodium dodecyl sulfate-polyacrylamide gel electrophoresis was performed by the method of Laemmli (Nature (1970) 227:680-685) using 10% homogeneous polyacrylamide slab gels. Sample buffer contained 8% sodium dodecyl sulfate, 10% glycerol, 5% 3-mercaptoethanol, 25 mM Tris-HCl, pH 6.5, and 0.003% bromphenol blue. After electrophoresis, gels were dried with a Bio-Rad gel dryer prior to autoradiography.

βAR kinase [3] = target: T1, βAR kinase; assay: βAR kinase inhibition with the βAR as substrate (Example I, data not shown); format: biochemical, bovine
From the text: βAR kinase phosphorylates the β2AR, the α2-adrenergic receptor, and rhodopsin in a stimulus-dependent fashion. Rhodopsin was utilized as the substrate in these experiments because of its ease of isolation. However, the inhibitory effects of polyanions observed with βAR kinase-catalyzed phosphorylation of rhodopsin have also been observed using reconstituted β2AR as the substrate.

permeabilized A431 cells = assay: Accumulation of [32P]cAMP in permeabilized cells; format: cell-based, human; conditions: up to 1 μM; presence or absence of isoproterenol
[4] = tested on: β2ARs in permeabilized A431 cells; assay: Phosphorylation of β2ARs in permeabilized A431 cells; format: cell-based, human; conditions: 1 μM heparin
Procedure: FIG. 8. Phosphorylation of β2ARs in permeabilized A431 cells. […] FIG. 8A: Autoradiogram obtained after a 10-day exposure at −70° C. FIG. 8B: Transverse densitometric scan of the autoradiogram.
β2ARs in permeabilized A431 cells were phosphorylated as follows. Permeabilized cells (4×10^8) in 10 ml of KG-A buffer containing 1 mCi (1 Ci=37 GBq) of [γ-^32P]ATP were incubated with or without 1 μM (−)-isoproterenol (and other compounds as indicated) for 10 min at 37° C. All buffers used in these experiments contained 5 μg of soybean tryspin inhibitor, 5 μg of leupeptin, and 10 μg of benzamidine per ml and 0.1 mM phenylmethylsulfonyl fluoride. […] After three identical washing steps, crude membranes were prepared as above.
Aliquots of the samples (≈60 fmol of β2ARs) were desalted over Sephadex G-50 and incubated for 2 hr at 20° C. with 200 pM of the ligand with or without 10 μM alprenolol. Free ligand was removed by desalting as above, and the samples were irradiated with UV light for 3 min. The samples were loaded on the same gel as the samples described above.

## heparin
βAR kinase [1]; ATP 33 to 100 μM
  type of inhibition with respect to ATP: mixed type inhibitor
βAR kinase [1]; rhodopsin 3 to 20 μM
  type of inhibition with respect to rhodopsin: competitive inhibitor
βAR kinase [2]; data of FIG. 1
  Hill coefficient of inhibition: ~2
βAR kinase [2]; read-out: IC50 (concentration of compound which gave 50% inhibition of βAR kinase), rhodopsin as substrate
  IC50: 0.15 µM
βAR kinase [2]; rhodopsin as substrate, mean ± S.E.
  IC50 (concentration of compound which gave 50% inhibition of βAR kinase): 0.77 ± 0.10 mg/L
βAR kinase [3]
  IC50: ~0.03 µM
Permeabilized A431 cells
  effect on [32P]cAMP formation: did not reduce
[4]
  effect on basal phosphorylation of β2ARs: not affecting basal phosphorylation
[4]; 1 μM isoproterenol, 10 min, three experiments
  reduction of isoproterenol-induced phosphorylation of β2ARs: 50-80%
